# According to patent US6737383B1, “Herbicidal oxadiazolidines” (priority 1999, dated 2004):
# Columns and labels:
# pigweed = assay: Test B pre/postemergence pigweed; type: in vivo, Amaranthus retroflexus; settings: for Redroot pigweed plant response rating: scale of 0 to 10 where 0 is no effect and 10 is complete control
# Outline: (§1)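 Response is a visual 0-to-10 score relative to untreated plants, where 0 means no effect and 10 means complete control, taken twelve to sixteen days after application. Treatments went onto soil at planting and onto foliage of 1- to 4-leaf plants, using a surfactant-containing non-phytotoxic solvent.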
# rape = assay: Test B pre/postemergence rape; type: in vivo, Brassica napus; settings: for Rape plant response rating: scale of 0 to 10 where 0 is no effect and 10 is complete control
# Outline: as §1
# soybean = assay: Test B pre/postemergence soybean; type: in vivo, Glycine max; settings: for Soybean plant response rating: scale of 0 to 10 where 0 is no effect and 10 is complete control
# Outline: as §1
# sugar beet = assay: Test B pre/postemergence sugar beet; type: in vivo, Beta vulgaris; settings: for Sugarbeets plant response rating: scale of 0 to 10 where 0 is no effect and 10 is complete control
# Outline: as §1
# winter wheat [1] = assay: Test E winter wheat; type: in vivo, Triticum aestivum; settings: Postemergence
# Outline: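 Postemergence: spray at 1–4 leaf stage, soil 60:40 sandy loam:potting mix; solvent + surfactant formulation; greenhouse 21–28 d; visual injury vs untreated controls.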
# blackgrass = assay: Test E blackgrass; type: in vivo, Alopecurus myosuroides; settings: Preemergence
# green foxtail = assay: Test E green foxtail; type: in vivo, Setaria viridis; settings: Preemergence
# Italian ryegrass = assay: Test E Italian ryegrass; type: in vivo, Lolium multiflorum; settings: Preemergence
# winter wheat [2] = assay: Test E winter wheat; type: in vivo, Triticum aestivum; settings: Preemergence
# wild oat = assay: Test E wild oat; type: in vivo, Avena fatua; settings: Preemergence
# winter barley = assay: Test E winter barley; type: in vivo, Hordeum vulgare; settings: Preemergence
# [3] = Postemergence, Rate 125 g/ha, scale 0 to 10, 0 is no effect, 10 is complete control
# [4] = Preemergence, Rate 62 g/ha, scale 0 to 10 (0 no effect, 10 complete control)
# [5] = Rate 500 g/ha, Postemergence, scale 0 to 10, 0 no effect, 10 complete control
# [6] = Rate 250 g/ha, 0 to 100 scale, 0 is no effect, 100 is complete control
# [7] = Rate 500 g/ha, 0 to 100 scale, 0 is no effect, 100 is complete control
# [8] = Rate 500 g/ha, 0 to 100 scale (0 no effect, 100 complete control)
# [9] = Rate 1000 g/ha, 0 to 100 scale, 0 no effect, 100 complete control
# [10] = Rate 250 g/ha, 0 to 100 scale, 0 no effect, 100 complete control
# [11] = Rate 125 g/ha, 0 to 100 scale, 0 is no effect, 100 is complete control
# [12] = Rate 125 g/ha, 0 to 100 scale (0 no effect, 100 complete control)
structure (smiles),measurement,setting,value
CC(C)N(C(=O)n1oc(=O)n(C2CCCCCC2)c1=O)c1ccccc1 [Compound 341],"Plant response rating, Redroot pigweed",pigweed; [3],0
same,"Plant response rating, Redroot pigweed",pigweed; [4],0
same,Redroot pigweed plant response rating (0 to 10 scale),"pigweed; Preemergence, Rate 125 g/ha",0
same,Redroot pigweed plant response rating,"pigweed; Preemergence, Rate 250 g/ha",0
same,Redroot pigweed plant response rating,"pigweed; Preemergence, Rate 500 g/ha",8
same,Redroot pigweed plant response rating,"pigweed; Rate 62 g/ha, Postemergence",0
same,"Plant response rating, Redroot pigweed",pigweed; [5],6
same,"Plant response rating, Rape",rape; [3],0
same,"Plant response rating, Rape",rape; [4],0
same,Rape plant response rating (0 to 10 scale),"rape; Preemergence, Rate 125 g/ha",0
same,Rape plant response rating,"rape; Preemergence, Rate 250 g/ha",0
same,Rape plant response rating,"rape; Preemergence, Rate 500 g/ha",0
same,Rape plant response rating,"rape; Rate 62 g/ha, Postemergence",0
same,"Plant response rating, Rape",rape; [5],2
same,"Plant response rating, Soybean",soybean; [3],2
same,"Plant response rating, Soybean",soybean; [4],0
same,Soybean plant response rating (0 to 10 scale),"soybean; Preemergence, Rate 125 g/ha",0
same,Soybean plant response rating,"soybean; Preemergence, Rate 250 g/ha",0
same,Soybean plant response rating,"soybean; Preemergence, Rate 500 g/ha",0
same,Soybean plant response rating,"soybean; Rate 62 g/ha, Postemergence",1
same,"Plant response rating, Soybean",soybean; [5],3
same,"Plant response rating, Sugarbeets",sugar beet; [3],0
same,"Plant response rating, Sugarbeets",sugar beet; [4],0
same,Sugarbeets plant response rating (0 to 10 scale),"sugar beet; Preemergence, Rate 125 g/ha",0
same,Sugarbeets plant response rating,"sugar beet; Preemergence, Rate 250 g/ha",0
same,Sugarbeets plant response rating,"sugar beet; Preemergence, Rate 500 g/ha",0
same,Sugarbeets plant response rating,"sugar beet; Rate 62 g/ha, Postemergence",0
same,"Plant response rating, Sugarbeets",sugar beet; [5],0
same,"Plant response rating, Wheat (winter)",winter wheat [1]; [6],70
same,"Plant response rating, Wheat (winter)","winter wheat [1]; Rate 1000 g/ha, 0 to 100 scale where 0 is no effect and 100 is complete control",65
same,"Plant response rating, Wheat (winter)",winter wheat [1]; [7],65
same,"Plant response rating, Blackgrass","blackgrass; Rate 250 g/ha, 0 to 100 scale",40
same,"Plant response rating, Blackgrass",blackgrass; [8],60
same,"Plant response rating, Blackgrass",blackgrass; [9],90
same,"Plant response rating, Green foxtail","green foxtail; Rate 250 g/ha, 0 to 100 scale",25
same,"Plant response rating, Green foxtail",green foxtail; [8],55
same,"Plant response rating, Green foxtail",green foxtail; [9],85
same,"Plant response rating, I. Ryegrass","Italian ryegrass; Rate 250 g/ha, 0 to 100 scale",50
same,"Plant response rating, I. Ryegrass",Italian ryegrass; [8],55
same,"Plant response rating, I. Ryegrass",Italian ryegrass; [9],55
same,"Plant response rating, Wheat (winter)","winter wheat [2]; Rate 250 g/ha, 0 to 100 scale",40
same,"Plant response rating, Wheat (winter)",winter wheat [2]; [8],50
same,"Plant response rating, Wheat (winter)",winter wheat [2]; [9],85
same,"Plant response rating, Wild oat","wild oat; Rate 250 g/ha, 0 to 100 scale",60
same,"Plant response rating, Wild oat",wild oat; [8],70
same,"Plant response rating, Wild oat",wild oat; [9],80
same,"Plant response rating, Barley (winter)",winter barley; [10],70
same,"Plant response rating, Barley (winter)",winter barley; [8],60
same,"Plant response rating, Barley (winter)",winter barley; [9],80
CC(C)N(C(=O)n1oc(=O)n(C2CCC2)c1=O)c1ccc(F)cc1 [Compound 350],"Plant response rating, Redroot pigweed",pigweed; [3],0
same,"Plant response rating, Redroot pigweed",pigweed; [4],4
same,Redroot pigweed plant response rating (0 to 10 scale),"pigweed; Preemergence, Rate 125 g/ha",10
same,Redroot pigweed plant response rating,"pigweed; Preemergence, Rate 250 g/ha",10
same,Redroot pigweed plant response rating,"pigweed; Preemergence, Rate 500 g/ha",10
same,Redroot pigweed plant response rating,"pigweed; Rate 62 g/ha, Postemergence",0
same,"Plant response rating, Redroot pigweed",pigweed; [5],3
same,"Plant response rating, Rape",rape; [3],0
same,"Plant response rating, Rape",rape; [4],0
same,Rape plant response rating (0 to 10 scale),"rape; Preemergence, Rate 125 g/ha",0
same,Rape plant response rating,"rape; Preemergence, Rate 250 g/ha",7
same,Rape plant response rating,"rape; Preemergence, Rate 500 g/ha",10
same,Rape plant response rating,"rape; Rate 62 g/ha, Postemergence",0
same,"Plant response rating, Rape",rape; [5],2
same,"Plant response rating, Soybean",soybean; [3],1
same,"Plant response rating, Soybean",soybean; [4],0
same,Soybean plant response rating (0 to 10 scale),"soybean; Preemergence, Rate 125 g/ha",0
same,Soybean plant response rating,"soybean; Preemergence, Rate 250 g/ha",0
same,Soybean plant response rating,"soybean; Preemergence, Rate 500 g/ha",2
same,Soybean plant response rating,"soybean; Rate 62 g/ha, Postemergence",1
same,"Plant response rating, Soybean",soybean; [5],3
same,"Plant response rating, Sugarbeets",sugar beet; [3],0
same,"Plant response rating, Sugarbeets",sugar beet; [4],2
same,Sugarbeets plant response rating (0 to 10 scale),"sugar beet; Preemergence, Rate 125 g/ha",2
same,Sugarbeets plant response rating,"sugar beet; Preemergence, Rate 250 g/ha",4
same,Sugarbeets plant response rating,"sugar beet; Preemergence, Rate 500 g/ha",9
same,Sugarbeets plant response rating,"sugar beet; Rate 62 g/ha, Postemergence",0
same,"Plant response rating, Sugarbeets",sugar beet; [5],0
same,"Plant response rating, Wheat (winter)",winter wheat [1]; [11],50
same,"Plant response rating, Wheat (winter)",winter wheat [1]; [6],30
same,"Plant response rating, Wheat (winter)",winter wheat [1]; [7],40
same,"Plant response rating, Blackgrass",blackgrass; [12],50
same,"Plant response rating, Blackgrass","blackgrass; Rate 250 g/ha, 0 to 100 scale",30
same,"Plant response rating, Blackgrass",blackgrass; [8],60
same,"Plant response rating, Green foxtail",green foxtail; [12],65
same,"Plant response rating, Green foxtail","green foxtail; Rate 250 g/ha, 0 to 100 scale",55
same,"Plant response rating, Green foxtail",green foxtail; [8],85
same,"Plant response rating, I. Ryegrass",Italian ryegrass; [12],60
same,"Plant response rating, I. Ryegrass","Italian ryegrass; Rate 250 g/ha, 0 to 100 scale",90
same,"Plant response rating, I. Ryegrass",Italian ryegrass; [8],85
same,"Plant response rating, Wheat (winter)",winter wheat [2]; [12],40
same,"Plant response rating, Wheat (winter)","winter wheat [2]; Rate 250 g/ha, 0 to 100 scale",40
same,"Plant response rating, Wheat (winter)",winter wheat [2]; [8],50
same,"Plant response rating, Wild oat",wild oat; [12],40
same,"Plant response rating, Wild oat","wild oat; Rate 250 g/ha, 0 to 100 scale",60
same,"Plant response rating, Wild oat",wild oat; [8],65
same,"Plant response rating, Barley (winter)",winter barley; [12],5
same,"Plant response rating, Barley (winter)",winter barley; [10],10
same,"Plant response rating, Barley (winter)",winter barley; [8],25
CCC(CC)n1c(=O)on(C(=O)N(c2ccc(F)cc2F)C(C)C)c1=O [Compound 353],"Plant response rating, Redroot pigweed",pigweed; [3],3
same,"Plant response rating, Redroot pigweed",pigweed; [4],7
same,Redroot pigweed plant response rating (0 to 10 scale),"pigweed; Preemergence, Rate 125 g/ha",10
same,Redroot pigweed plant response rating,"pigweed; Preemergence, Rate 250 g/ha",10
same,Redroot pigweed plant response rating,"pigweed; Preemergence, Rate 500 g/ha",10
same,Redroot pigweed plant response rating,"pigweed; Rate 62 g/ha, Postemergence",2
same,"Plant response rating, Redroot pigweed",pigweed; [5],6
same,"Plant response rating, Rape",rape; [3],2
same,"Plant response rating, Rape",rape; [4],0
same,Rape plant response rating (0 to 10 scale),"rape; Preemergence, Rate 125 g/ha",0
same,Rape plant response rating,"rape; Preemergence, Rate 250 g/ha",1
same,Rape plant response rating,"rape; Preemergence, Rate 500 g/ha",5
same,Rape plant response rating,"rape; Rate 62 g/ha, Postemergence",2
same,"Plant response rating, Rape",rape; [5],4
same,"Plant response rating, Soybean",soybean; [3],4
same,"Plant response rating, Soybean",soybean; [4],0
same,Soybean plant response rating (0 to 10 scale),"soybean; Preemergence, Rate 125 g/ha",0
same,Soybean plant response rating,"soybean; Preemergence, Rate 250 g/ha",0
same,Soybean plant response rating,"soybean; Preemergence, Rate 500 g/ha",0
same,Soybean plant response rating,"soybean; Rate 62 g/ha, Postemergence",4
same,"Plant response rating, Soybean",soybean; [5],6
same,"Plant response rating, Sugarbeets",sugar beet; [3],0
same,"Plant response rating, Sugarbeets",sugar beet; [4],0
same,Sugarbeets plant response rating (0 to 10 scale),"sugar beet; Preemergence, Rate 125 g/ha",2
same,Sugarbeets plant response rating,"sugar beet; Preemergence, Rate 250 g/ha",2
same,Sugarbeets plant response rating,"sugar beet; Preemergence, Rate 500 g/ha",4
same,Sugarbeets plant response rating,"sugar beet; Rate 62 g/ha, Postemergence",0
same,"Plant response rating, Sugarbeets",sugar beet; [5],6
same,"Plant response rating, Wheat (winter)",winter wheat [1]; [11],20
same,"Plant response rating, Wheat (winter)",winter wheat [1]; [6],30
same,"Plant response rating, Wheat (winter)",winter wheat [1]; [7],40
same,"Plant response rating, Blackgrass",blackgrass; [12],10
same,"Plant response rating, Blackgrass","blackgrass; Rate 250 g/ha, 0 to 100 scale",50
same,"Plant response rating, Blackgrass",blackgrass; [8],55
same,"Plant response rating, Green foxtail",green foxtail; [12],70
same,"Plant response rating, Green foxtail","green foxtail; Rate 250 g/ha, 0 to 100 scale",100
same,"Plant response rating, Green foxtail",green foxtail; [8],100
same,"Plant response rating, I. Ryegrass",Italian ryegrass; [12],40
same,"Plant response rating, I. Ryegrass","Italian ryegrass; Rate 250 g/ha, 0 to 100 scale",90
same,"Plant response rating, I. Ryegrass",Italian ryegrass; [8],90
same,"Plant response rating, Wheat (winter)",winter wheat [2]; [12],20
same,"Plant response rating, Wheat (winter)","winter wheat [2]; Rate 250 g/ha, 0 to 100 scale",40
same,"Plant response rating, Wheat (winter)",winter wheat [2]; [8],60
same,"Plant response rating, Wild oat",wild oat; [12],30
same,"Plant response rating, Wild oat","wild oat; Rate 250 g/ha, 0 to 100 scale",55
same,"Plant response rating, Wild oat",wild oat; [8],85
same,"Plant response rating, Barley (winter)",winter barley; [12],10
same,"Plant response rating, Barley (winter)",winter barley; [10],20
same,"Plant response rating, Barley (winter)",winter barley; [8],30
